According to ChEMBL document CHEMBL1201862, “PubChem BioAssay data set” (2004):
The source made the active and inactive calls.

Experiments:
[1] = target: Small ubiquitin-related modifier 1 (Homo sapiens, UniProt P63165); assay: SUMO1 protein interaction blockers, potency – biochemical, fluorescence polarization, uHTS hits, dose response (AID 624382); assay type: functional; conditions: read-out: IC50_Mean
[2] = target: Voltage-gated N-type calcium channel alpha-1B subunit/Amyloid beta A4 precursor protein-binding family A member 1 (Homo sapiens, UniProt Q00975+Q02410); assay type: protein assay
[3] = target: T1, Fatty acid synthase (Homo sapiens, UniProt P49327); assay: inhibition of human FAS-TE enzyme activity – biochemical, endpoint fluorescence intensity, uHTS hits, dose response (AID 624327); assay type: functional;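 further: fluorescence from hydrolysis of an O-methyl fluorescein acyl ester substrate by the enzyme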
T1 sequence (P49327 whole entry): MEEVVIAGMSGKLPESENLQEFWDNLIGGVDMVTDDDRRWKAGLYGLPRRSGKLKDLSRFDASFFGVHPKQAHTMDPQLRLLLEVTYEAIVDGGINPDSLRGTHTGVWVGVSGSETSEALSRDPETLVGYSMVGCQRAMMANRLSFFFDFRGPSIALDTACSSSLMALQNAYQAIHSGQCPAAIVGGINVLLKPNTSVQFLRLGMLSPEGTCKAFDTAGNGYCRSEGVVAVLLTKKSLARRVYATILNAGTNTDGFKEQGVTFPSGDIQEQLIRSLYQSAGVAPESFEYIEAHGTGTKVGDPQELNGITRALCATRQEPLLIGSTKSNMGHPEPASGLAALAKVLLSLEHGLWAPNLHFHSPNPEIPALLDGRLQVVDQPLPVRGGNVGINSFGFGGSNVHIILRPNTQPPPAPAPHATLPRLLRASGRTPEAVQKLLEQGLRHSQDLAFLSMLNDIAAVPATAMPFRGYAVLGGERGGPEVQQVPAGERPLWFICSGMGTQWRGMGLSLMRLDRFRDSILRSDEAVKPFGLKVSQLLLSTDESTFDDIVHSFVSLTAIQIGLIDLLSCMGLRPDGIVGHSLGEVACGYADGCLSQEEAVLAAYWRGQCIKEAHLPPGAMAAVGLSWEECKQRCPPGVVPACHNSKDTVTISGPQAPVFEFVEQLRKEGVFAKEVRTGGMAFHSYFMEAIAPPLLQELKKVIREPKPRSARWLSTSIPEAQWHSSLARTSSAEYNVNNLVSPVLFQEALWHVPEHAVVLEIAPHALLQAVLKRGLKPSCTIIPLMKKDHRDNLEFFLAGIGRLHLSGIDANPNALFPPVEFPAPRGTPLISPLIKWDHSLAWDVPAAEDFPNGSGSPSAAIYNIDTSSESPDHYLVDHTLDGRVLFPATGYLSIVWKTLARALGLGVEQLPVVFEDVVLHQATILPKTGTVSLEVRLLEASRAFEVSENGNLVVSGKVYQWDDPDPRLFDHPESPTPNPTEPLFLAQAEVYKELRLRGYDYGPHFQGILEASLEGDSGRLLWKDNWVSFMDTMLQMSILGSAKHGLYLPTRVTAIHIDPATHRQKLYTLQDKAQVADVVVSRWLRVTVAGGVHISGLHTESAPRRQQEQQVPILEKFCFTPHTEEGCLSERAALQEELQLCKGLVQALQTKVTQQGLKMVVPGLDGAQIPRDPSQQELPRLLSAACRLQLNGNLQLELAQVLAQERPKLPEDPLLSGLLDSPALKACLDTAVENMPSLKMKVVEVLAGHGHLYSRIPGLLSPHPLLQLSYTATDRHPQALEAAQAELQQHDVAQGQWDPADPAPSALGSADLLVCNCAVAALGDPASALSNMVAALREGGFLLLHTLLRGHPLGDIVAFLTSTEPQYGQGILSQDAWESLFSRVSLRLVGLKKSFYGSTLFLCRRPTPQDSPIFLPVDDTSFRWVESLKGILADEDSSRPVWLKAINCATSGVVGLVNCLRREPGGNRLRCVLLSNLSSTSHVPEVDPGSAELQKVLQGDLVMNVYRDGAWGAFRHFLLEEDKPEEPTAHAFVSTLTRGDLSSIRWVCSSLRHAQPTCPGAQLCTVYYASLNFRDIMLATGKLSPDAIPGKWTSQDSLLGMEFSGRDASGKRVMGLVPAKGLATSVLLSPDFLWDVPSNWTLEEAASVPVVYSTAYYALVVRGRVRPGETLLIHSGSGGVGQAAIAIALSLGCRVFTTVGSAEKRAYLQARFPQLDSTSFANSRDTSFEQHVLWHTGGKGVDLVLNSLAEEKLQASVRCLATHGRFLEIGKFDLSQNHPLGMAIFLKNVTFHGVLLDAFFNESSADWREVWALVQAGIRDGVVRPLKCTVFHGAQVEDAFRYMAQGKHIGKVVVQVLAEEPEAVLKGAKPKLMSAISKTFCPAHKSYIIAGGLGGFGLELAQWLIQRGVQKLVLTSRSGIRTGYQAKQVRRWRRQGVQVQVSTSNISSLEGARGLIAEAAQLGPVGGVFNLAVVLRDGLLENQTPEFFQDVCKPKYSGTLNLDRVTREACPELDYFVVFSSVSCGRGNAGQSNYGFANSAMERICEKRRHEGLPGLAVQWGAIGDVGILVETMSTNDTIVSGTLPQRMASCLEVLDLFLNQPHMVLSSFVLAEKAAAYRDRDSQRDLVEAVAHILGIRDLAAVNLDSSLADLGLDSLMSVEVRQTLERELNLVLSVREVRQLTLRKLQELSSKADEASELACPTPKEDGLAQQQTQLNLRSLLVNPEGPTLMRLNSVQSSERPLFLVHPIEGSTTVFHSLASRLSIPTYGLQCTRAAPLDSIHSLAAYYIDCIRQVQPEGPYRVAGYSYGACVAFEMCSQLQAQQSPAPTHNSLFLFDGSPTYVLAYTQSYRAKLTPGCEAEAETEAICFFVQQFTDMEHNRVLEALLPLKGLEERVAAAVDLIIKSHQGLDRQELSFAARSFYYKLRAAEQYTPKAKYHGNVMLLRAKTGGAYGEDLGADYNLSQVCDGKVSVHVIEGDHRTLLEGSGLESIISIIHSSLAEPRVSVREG

[4] = target: T1, Fatty acid synthase; assay: inhibition of human FAS-TE enzyme activity – biochemical, kinetic fluorescence intensity, dose response (AID 624326); assay type: functional;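 further: rate of fluorescence rise from hydrolysis of a fluorogenic O-methyl fluorescein ester substrate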
[5] = THP-1 cell cytotoxicity, dose response, cytotoxicity control for non-replicating M. tuberculosis project (AID 489025); assay type: functional
[6] = target: Nonstructural protein 1 (Influenza A virus, UniProt Q194T2); assay type: functional, Influenza A virus (A/California/07/2009(H1N1))
Nonstructural protein 1, sequence (Q194T2 whole entry): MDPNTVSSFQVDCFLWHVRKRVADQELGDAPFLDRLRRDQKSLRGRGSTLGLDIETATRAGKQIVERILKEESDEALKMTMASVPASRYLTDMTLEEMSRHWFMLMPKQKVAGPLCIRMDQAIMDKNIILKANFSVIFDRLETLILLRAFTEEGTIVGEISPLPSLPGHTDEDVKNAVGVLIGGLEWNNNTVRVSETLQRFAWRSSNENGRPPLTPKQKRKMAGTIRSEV

[7] = target: T2, Sentrin-specific protease 7 (Homo sapiens, UniProt Q9BQF6); assay type: functional;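 further: Luminescence-based dose-response confirmation of ultra-high-throughput screening hits, measuring inhibition of SENP7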
T2 sequence (Q9BQF6 whole entry): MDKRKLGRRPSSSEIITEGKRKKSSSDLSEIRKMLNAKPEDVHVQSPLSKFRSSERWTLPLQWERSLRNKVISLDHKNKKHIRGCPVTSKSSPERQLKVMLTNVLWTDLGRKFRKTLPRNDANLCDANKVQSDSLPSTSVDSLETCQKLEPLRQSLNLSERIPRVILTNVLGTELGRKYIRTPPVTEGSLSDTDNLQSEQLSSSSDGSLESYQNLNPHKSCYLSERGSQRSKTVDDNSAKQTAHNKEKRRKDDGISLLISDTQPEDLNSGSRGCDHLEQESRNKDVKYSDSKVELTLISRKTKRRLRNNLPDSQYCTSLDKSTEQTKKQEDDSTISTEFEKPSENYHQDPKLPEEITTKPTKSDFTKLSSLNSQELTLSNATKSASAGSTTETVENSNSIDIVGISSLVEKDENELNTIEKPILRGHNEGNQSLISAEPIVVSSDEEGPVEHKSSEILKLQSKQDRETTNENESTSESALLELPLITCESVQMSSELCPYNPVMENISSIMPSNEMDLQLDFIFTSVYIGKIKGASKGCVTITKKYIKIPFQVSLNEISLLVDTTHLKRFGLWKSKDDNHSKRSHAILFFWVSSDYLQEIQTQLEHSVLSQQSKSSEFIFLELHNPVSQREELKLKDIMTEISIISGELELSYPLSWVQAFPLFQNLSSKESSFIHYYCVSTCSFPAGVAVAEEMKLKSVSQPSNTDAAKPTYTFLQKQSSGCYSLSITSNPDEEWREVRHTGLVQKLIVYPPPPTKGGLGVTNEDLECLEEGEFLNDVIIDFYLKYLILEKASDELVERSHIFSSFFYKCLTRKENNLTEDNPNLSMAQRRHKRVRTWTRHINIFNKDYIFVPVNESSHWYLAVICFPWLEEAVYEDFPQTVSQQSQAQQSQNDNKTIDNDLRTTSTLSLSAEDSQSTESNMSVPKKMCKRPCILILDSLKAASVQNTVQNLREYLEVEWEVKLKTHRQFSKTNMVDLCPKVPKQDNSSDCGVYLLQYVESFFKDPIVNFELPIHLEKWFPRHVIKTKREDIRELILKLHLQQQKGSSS

[8] = target: T3, Caspase-3 (Homo sapiens, UniProt P42574); assay type: functional;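 further: Dose-response selectivity test against caspase-3 for candidate inhibitors of sentrin-specific proteases (SENPs)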
T3 sequence (P42574 whole entry): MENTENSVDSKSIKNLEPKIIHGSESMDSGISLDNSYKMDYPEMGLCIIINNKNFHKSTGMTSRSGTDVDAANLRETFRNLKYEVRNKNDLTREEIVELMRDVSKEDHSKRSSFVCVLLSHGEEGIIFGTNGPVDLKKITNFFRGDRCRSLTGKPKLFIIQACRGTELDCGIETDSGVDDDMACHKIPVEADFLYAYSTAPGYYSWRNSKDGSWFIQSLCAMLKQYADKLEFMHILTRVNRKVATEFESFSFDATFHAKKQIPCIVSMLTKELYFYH

[9] = target: T4, Mitochondrial peptide methionine sulfoxide reductase (Bos taurus, UniProt P54149); assay type: functional;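 further: absorbance read-out, biochemical high-throughput dose-response screen for MsrA inhibitors, confirmatory; recombinant bovine MsrA coupled to E. coli TrxB with NADPH and selenocystamine; potency is for inhibitors of MsrA activity on DMSO substrate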
T4 sequence (P54149 whole entry): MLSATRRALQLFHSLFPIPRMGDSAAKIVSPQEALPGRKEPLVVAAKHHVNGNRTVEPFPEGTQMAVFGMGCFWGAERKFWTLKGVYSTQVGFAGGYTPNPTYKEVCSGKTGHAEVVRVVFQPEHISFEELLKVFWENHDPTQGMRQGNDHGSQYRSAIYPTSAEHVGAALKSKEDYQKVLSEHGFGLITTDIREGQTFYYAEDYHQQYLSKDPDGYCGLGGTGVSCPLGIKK

[10] = target: Phospholipase A2 (Homo sapiens, UniProt P04054); assay type: functional;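 further: confirmatory dose-response counterscreen on phospholipase A2, testing hits that came from an ultra-high-throughput screen for ATG4B inhibitors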
Phospholipase A2, sequence (P04054 whole entry): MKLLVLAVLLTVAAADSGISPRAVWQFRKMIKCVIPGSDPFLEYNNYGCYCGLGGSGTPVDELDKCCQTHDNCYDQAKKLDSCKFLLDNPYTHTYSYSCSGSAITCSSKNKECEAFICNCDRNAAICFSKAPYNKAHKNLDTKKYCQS

[11] = activation of miR-122 Renilla sensor silencing – cell-based, Huh7 psiCHECK-miR122, Renilla luciferase, cherry-picked, dose response (AID 651956); assay type: functional;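 further: huh7 hepatoma cells stably carrying a psiCHECK-2 miR-122 sensor plasmid; renilla luciferase signal reporting endogenous miR-122 activity after 48 h compound exposure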
[12] = tested on: INS1; assay: INS-1E survival protection against cytokine death – cell-based, luminescence, retest, dose response (AID 449756); assay type: functional; conditions: Rattus norvegicus;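 further: cell death triggered by IL-1 beta plus TNF-alpha plus IFN-gamma mixture; protective hits raise ATP signal compared with cytokine alone wells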
[13] = IC50 of Artemis nuclease activity blockers – biochemical, fluorescence intensity, dose response (AID 720701); assay type: functional;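 further: Artemis endonuclease enzyme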
[14] = target: ATP-dependent molecular chaperone HSP82 (Candida albicans (strain WO-1) (Yeast), UniProt C4YTQ8); assay: steroid-induced GRE reporter decrease in yeast – S. cerevisiae, luminescence, Hsp90 inhibitor project, dose response (AID 2400); assay type: functional, cell-based;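 further: beta-galactosidase luminescence from glucocorticoid response element reporter as proxy for Hsp90 function; inhibitor potency where signal loss means Hsp90 inhibition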
ATP-dependent molecular chaperone HSP82, sequence (C4YTQ8 whole entry): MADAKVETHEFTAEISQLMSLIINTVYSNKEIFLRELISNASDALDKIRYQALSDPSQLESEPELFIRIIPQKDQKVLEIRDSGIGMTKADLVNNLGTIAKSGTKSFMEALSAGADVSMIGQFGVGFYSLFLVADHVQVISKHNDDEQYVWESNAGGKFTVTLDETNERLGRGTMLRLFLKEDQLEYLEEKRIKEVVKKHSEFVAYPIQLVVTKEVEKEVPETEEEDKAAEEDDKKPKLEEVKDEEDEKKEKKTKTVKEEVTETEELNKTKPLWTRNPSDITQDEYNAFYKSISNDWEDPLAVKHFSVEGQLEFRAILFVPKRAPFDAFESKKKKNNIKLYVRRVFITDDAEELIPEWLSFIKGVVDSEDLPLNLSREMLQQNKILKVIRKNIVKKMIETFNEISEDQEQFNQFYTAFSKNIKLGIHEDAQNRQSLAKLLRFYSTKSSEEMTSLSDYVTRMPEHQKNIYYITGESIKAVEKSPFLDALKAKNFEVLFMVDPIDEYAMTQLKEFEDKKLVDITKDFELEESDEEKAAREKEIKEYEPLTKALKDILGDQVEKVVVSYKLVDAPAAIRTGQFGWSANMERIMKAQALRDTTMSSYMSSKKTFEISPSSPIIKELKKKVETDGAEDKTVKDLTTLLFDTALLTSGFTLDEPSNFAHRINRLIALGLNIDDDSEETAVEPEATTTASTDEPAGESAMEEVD

[15] = decrease of insulin promoter-GFP reporter – imaging, high-content screening, mouse beta cells (AID 1628); assay type: functional; conditions: MIN6
[16] = tested on: HEK293; assay: SAR Analysis of small molecule inhibitors of T-cell specific antigen receptor-induced NF-kB activation in a HEK-293T cell line using a luminescence assay - Set 2. [Related pubchem assays (depositor defined):AID435003, AID435012, AID489026]; assay type: functional, cell-based; conditions: Homo sapiens
[17] = tested on: Jurkat; assay: SAR Analysis of small molecule inhibitors of T-cell specific antigen receptor-induced NF-kB activation in a Jurkat cell line using a luminescence assay. [Related pubchem assays (depositor defined):AID435003, AID435012, AID465]; assay type: functional, cell-based; conditions: Homo sapiens

Small ubiquitin-related modifier 1, sequence (P63165 whole entry): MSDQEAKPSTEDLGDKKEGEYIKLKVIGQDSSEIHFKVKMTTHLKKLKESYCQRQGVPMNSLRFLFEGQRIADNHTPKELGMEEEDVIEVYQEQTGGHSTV

## COc1cc(-c2ccc(Nc3ccccc3C(=O)O)c(OC)c2)ccc1Nc1ccccc1C(=O)O
[1]
  IC50: 0.647 µM (active)
[2]
  IC50: 7.6 µM (active)
[3]
  IC50: 7.61 µM (active)
[4]
  IC50: 6.68 µM (active)

## COC(CNC(=O)c1ccc2c3c(onc13)-c1ccccc1C2=O)OC
[5]
  CC50: 7.86 µM (active)
[6]
  IC50: 82.4 µM (active)

## COc1ccc(OC)c(Nc2cc3ccccc3c(O)n2)c1
[7]
  IC50: 2.19 µM (active)
[8]
  IC50: 1.88 µM (active)

## O=C(O)c1ccc(NC2=C/C(=N/S(=O)(=O)c3ccccc3)c3ccccc3C2=O)cc1
[9]
  IC50: 6.42 µM (active)
[10]
  IC50: 34.7 µM (inactive)
[7]
  IC50: 2.06 µM (active)
[8]
  IC50: 4.5 µM (active)

## Nc1ccc2c(c1)C(=O)C(=O)c1ccccc1-2
[10]
  IC50: 48.8 µM (inactive)
[5]
  CC50: 2.74 µM (active)
[11]
  AC50: 10.7 µM (active)
[12]
  AC50: 1.06 µM (active)
[13]
  IC50: < 0.63 µM (active)

## CCCC(=O)NC(c1ccccc1OC)c1ccc2cccnc2c1O (configuration not stated)
[14]
  EC50: 25.9 µM (active)
[15]
  IC50: 1.71 µM (active)
[16]
  IC50: 3.97 µM (active)
[12]
  AC50: 1.14 µM (active)
[17]
  IC50: 3.82 µM (active)
